Test results from the supplement of paper PMC11208160.

Assay: recombinant barcode read abundance after kanamycin selection (control-corrected) (log10(CPM+1)); higher = more efficient recombination; sequences stand for … in AGTGCAGAGAAAATCGGCCAGTTTTCTCTGCCTGCAGTCCGCATGCCGT…AGATTTATGCAGCGGACTGCCTTTCTCCCAAAGTGATAAACCGGACAGTATCATGGACCGGTTTTCCCGGTAATCCGTATTTGCAAGGTTGGTTTCACT; site = the 11-nt target
Experimental: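 Pooled E. coli target-specificity screen for the IS621 bridge recombinase. Each library plasmid pairs an 11-nt target (CT core) with a bridge RNA whose target-binding loop (9-nt LTG + 4-nt RTG) is reprogrammed; the rest of the 177-nt WT IS621 bridge RNA scaffold is fixed. The plasmid is co-electroporated with a WT donor plasmid; recombinase is induced with 0.1 mM IPTG and recombinants are selected on kanamycin. Recombinant barcodes are sequenced, converted to CPM, averaged over two biological replicates and corrected by the unselected control CPM. Molecule = full bridge RNA written as DNA: LTG = specificity nt 1-9, RTG = reverse complement of specificity nt 8-11, in the WT scaffold.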
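Also: IS621 recombinase and bridge RNA in Escherichia coli cells.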

Row | Sequence | recombinant barcode read abundance (log10)
1 | ACGCACTCTTGGGTTCTAACCTGTTGCCT (site ACGCAGTCTAG) | 0.109
2 | ACGCACTCTTGGGTTCTAACCTGTTGCCT (site ACGCATTCTAG) | 0.394
3 | ACGCATACTTGGGTTCTAACCTGTTGCCT (site ACACATACTAG) | 0.196
4 | ACGCATACTTGGGTTCTAACCTGTTGCCT (site ACGCATACTAG) | 0.0647
5 | ACGCATCCTTGGGTTCTAACCTGTTGCCT (site AAGCATCCTAG) | 0.0107
6 | ACGCATCCTTGGGTTCTAACCTGTTGCCT (site ACGCATCCTAG) | 0.0284
7 | ACGCATCCTTGGGTTCTAACCTGTTGCCT (site AGGCATCCTAG) | 0.0797
8 | ACGCATCCTTGGGTTCTAACCTGTTGCCT (site ATGCATCCTAG) | 0.11
9 | ACGCCCTCTTGGGTTCTAACCTGTTGCCT (site ACGCCCTCTAG) | 0.0283
10 | ACGCCCTCTTGGGTTCTAACCTGTTGCCT (site GCGCCCTCTAG) | 0.302
11 | ACGCCTCCTTGGGTTCTAACCTGTTGCCA (site ACCCCTCCTTG) | 0.0961
12 | ACGCCTCCTTGGGTTCTAACCTGTTGCCA (site ACGCCTCCTTG) | 0.371
13 | ACGCGAGCTTGGGTTCTAACCTGTTGCAG (site ACGCGAGCTCA) | 0.188
14 | ACGCGAGCTTGGGTTCTAACCTGTTGCAG (site ACGCGAGCTCC) | 0.318
15 | ACGCGAGCTTGGGTTCTAACCTGTTGCAG (site ACGCGAGCTCG) | 0.192
16 | ACGCGAGCTTGGGTTCTAACCTGTTGCAG (site ACGCGAGCTCT) | 0.142
17 | ACGCGAGCTTGGGTTCTAACCTGTTGCGG (site ACGCGAGCTCA) | 0.066
18 | ACGCGAGCTTGGGTTCTAACCTGTTGCGG (site ACGCGAGCTCC) | 0.954
19 | ACGCGAGCTTGGGTTCTAACCTGTTGCGG (site ACGCGAGCTCG) | 0.316
20 | ACGCGAGCTTGGGTTCTAACCTGTTGCGG (site ACGCGAGCTCT) | 0.423
21 | ACGCGGACTTGGGTTCTAACCTGTTGCCT (site ACGCCGACTAG) | 0

Row | Sequence | recombinant barcode read abundance (log10)
22 | ACGCGGACTTGGGTTCTAACCTGTTGCCT (site ACGCGGACTAG) | 1.21
23 | ACGCGTTCTTGGGTTCTAACCTGTTGCAT (site ACGCGTTCTAT) | 0.0272
24 | ACGCGTTCTTGGGTTCTAACCTGTTGCAT (site CTAGACCCTCC) | 0.271
25 | ACGGATCCTTGGGTTCTAACCTGTTGCAT (site ACGGATCCTAT) | 2.51
26 | ACGGATCCTTGGGTTCTAACCTGTTGCAT (site GTCCTATCTTG) | 0.0315
27 | ACGGCCTCTTGGGTTCTAACCTGTTGCTT (site ACGGCATCTAG) | 0.276
28 | ACGGCCTCTTGGGTTCTAACCTGTTGCTT (site ACGGCCTCTAA) | 2.63
29 | ACGGCGCCTTGGGTTCTAACCTGTTGCCT (site AAGGCGCCTAG) | 0.0538
30 | ACGGCGCCTTGGGTTCTAACCTGTTGCCT (site ACGGCGCCTAG) | 1.12
31 | ACGGCGCCTTGGGTTCTAACCTGTTGCCT (site AGGGCGCCTAG) | 0.101
32 | ACGGCGCCTTGGGTTCTAACCTGTTGCCT (site ATGGCGCCTAG) | 0.182
33 | ACGGGCTCTTGGGTTCTAACCTGTTGCTC (site ACGGGCTCTGA) | 1.53
34 | ACGGGCTCTTGGGTTCTAACCTGTTGCTC (site CGACTTACTAT) | 0.164
35 | ACGGGGTCTTGGGTTCTAACCTGTTGCCT (site ACGGGGTCTAG) | 2.64
36 | ACGGGGTCTTGGGTTCTAACCTGTTGCCT (site CCGGGGTCTAG) | 0.637
37 | ACGGGGTCTTGGGTTCTAACCTGTTGCCT (site GCGGGGTCTAG) | 0.123
38 | ACGGGGTCTTGGGTTCTAACCTGTTGCCT (site TCGGGGTCTAG) | 0.416
39 | ACGGGTACTTGGGTTCTAACCTGTTGCCT (site ACGGGTACTAG) | 1.51
40 | ACGGGTACTTGGGTTCTAACCTGTTGCCT (site ACTGGTACTAG) | 0.165
41 | ACGTAACCTTGGGTTCTAACCTGTTGCCT (site ACGTAACCTAG) | 0.0547
42 | ACGTAACCTTGGGTTCTAACCTGTTGCCT (site GTAACTACTGA) | 0.083

Row | Sequence | recombinant barcode read abundance (log10)
43 | ACGTATGCTTGGGTTCTAACCTGTTGCAT (site ACGTATGCTAT) | 0.556
44 | ACGTATGCTTGGGTTCTAACCTGTTGCAT (site TAAATCACTCG) | 0.0674
45 | ACGTCTCCTTGGGTTCTAACCTGTTGCTG (site ACGACTCCTCA) | 0
46 | ACGTCTCCTTGGGTTCTAACCTGTTGCTG (site ACGCCTCCTCA) | 0.175
47 | ACGTCTCCTTGGGTTCTAACCTGTTGCTG (site ACGGCTCCTCA) | 0.0879
48 | ACGTCTCCTTGGGTTCTAACCTGTTGCTG (site ACGTCTCCTCA) | 0.162
49 | ACGTGCTCTTGGGTTCTAACCTGTTGCCT (site AAGTGCTCTAG) | 0.503
50 | ACGTGCTCTTGGGTTCTAACCTGTTGCCT (site ACGTGCTCTAG) | 1.32
51 | ACGTGCTCTTGGGTTCTAACCTGTTGCCT (site AGGTGCTCTAG) | 0.119
52 | ACGTGCTCTTGGGTTCTAACCTGTTGCCT (site ATGTGCTCTAG) | 0.246
53 | ACGTGGCCTTGGGTTCTAACCTGTTGCCA (site ACGTGGCCTTG) | 0.0442
54 | ACGTGGCCTTGGGTTCTAACCTGTTGCCA (site ACGTGGTCTTA) | 0.275
55 | ACGTGGCCTTGGGTTCTAACCTGTTGCTG (site ACGTGGCCTCA) | 1.05
56 | ACGTGGCCTTGGGTTCTAACCTGTTGCTG (site ACTTGGCCTCA) | 0.618
57 | ACGTGGTCTTGGGTTCTAACCTGTTGCTA (site ACGTGGCCTTG) | 0.534
58 | ACGTGGTCTTGGGTTCTAACCTGTTGCTA (site ACGTGGTCTTA) | 0.582
59 | ACTAACACTTGGGTTCTAACCTGTTGCCT (site ACTAACACTAG) | 1.23
60 | ACTAACACTTGGGTTCTAACCTGTTGCCT (site CCTAACACTAG) | 0.0857
61 | ACTAACACTTGGGTTCTAACCTGTTGCCT (site GCTAACACTAG) | 0.0913
62 | ACTAACACTTGGGTTCTAACCTGTTGCCT (site TCTAACACTAG) | 0.546
63 | ACTAACCCTTGGGTTCTAACCTGTTGCCT (site AATAACCCTAG) | 0.0415

Row | Sequence | recombinant barcode read abundance (log10)
64 | ACTAACCCTTGGGTTCTAACCTGTTGCCT (site ACTAACCCTAG) | 1.47
65 | ACTAACCCTTGGGTTCTAACCTGTTGCCT (site AGTAACCCTAG) | 0.08
66 | ACTAACCCTTGGGTTCTAACCTGTTGCCT (site ATTAACCCTAG) | 0.074
67 | ACTAAGCCTTGGGTTCTAACCTGTTGCGG (site ACTAAGCCTCC) | 1.93
68 | ACTAAGCCTTGGGTTCTAACCTGTTGCGG (site AGTAAGCCTCT) | 0.151
69 | ACTACCTCTTGGGTTCTAACCTGTTGCCT (site AATACCTCTAG) | 0.0169
70 | ACTACCTCTTGGGTTCTAACCTGTTGCCT (site ACTACCTCTAG) | 1.35
71 | ACTACCTCTTGGGTTCTAACCTGTTGCCT (site AGTACCTCTAG) | 0.0737
72 | ACTACCTCTTGGGTTCTAACCTGTTGCCT (site ATTACCTCTAG) | 0.0805
73 | ACTACTACTTGGGTTCTAACCTGTTGCCT (site AATACTACTAG) | 0.227
74 | ACTACTACTTGGGTTCTAACCTGTTGCCT (site ACTACTACTAG) | 0.172
75 | ACTACTACTTGGGTTCTAACCTGTTGCCT (site AGTACTACTAG) | 0.492
76 | ACTACTACTTGGGTTCTAACCTGTTGCCT (site ATTACTACTAG) | 0.111
77 | ACTAGACCTTGGGTTCTAACCTGTTGCCT (site ACTAGACCTAG) | 0.5
78 | ACTAGACCTTGGGTTCTAACCTGTTGCCT (site ACTCGACCTAG) | 0.134
79 | ACTAGGACTTGGGTTCTAACCTGTTGCGT (site ACTAGGACTAC) | 2.91
80 | ACTAGGACTTGGGTTCTAACCTGTTGCGT (site ACTAGGACTCC) | 1.22
81 | ACTAGGACTTGGGTTCTAACCTGTTGCGT (site ACTAGGACTGC) | 0.248
82 | ACTAGGACTTGGGTTCTAACCTGTTGCGT (site ACTAGGACTTC) | 0.26
